Experiments:
Wistar rats [1] = test: Mechanical hyperalgesia (Randall-Selitto paw pressure) in iodoacetate rat model of osteoarthritic pain; type: in vivo; conditions: for paw pressure withdrawal threshold compared to iodoacetate/vehicle treated animals: day 3 after iodoacetate
Sprague Dawley rats [2] = test: TNF-induced muscle pressure hyperalgesia, gastrocnemius muscle (Randall-Selitto analgesimeter); type: in vivo, rat; conditions: for reversal of muscular mechanical hyperalgesia (withdrawal thresholds to pressure): 18 hours after TNF 1 μg into gastrocnemius, 30 to 60 minutes after drug; for Maximal Possible Effect (MPE) versus vehicle, muscle pressure: FIG. 2; for full reversal of the muscle hyperalgesia: doses tested i.p.: pregabalin 30 and 100 mg/kg, gabapentin 100 mg/kg
Procedure: (§1) Intramuscular injection of tumor necrosis factor-alpha (TNF) was used as a model of muscular mechanical hyperalgesia, which occurs in the human fibromyalgia, myofascial pain syndrome, back pain or osteoarthritis.
(§2) Mechanical withdrawal thresholds to muscle pressure were measured with an analgesimeter exerting pressure on the gastrocnemius muscle previously injected with TNF. Forelimb grip strength was measured with a digital grip force meter after TNF injection into the biceps brachii muscles.
(§3) Adult male Sprague Dawley rats with a body weight of 250 g to 300 g were used (supplier: Charles River Sulzfeld Germany). Animals were group-housed (3 animals per cage) and maintained in a room with controlled temperature (21-22° C.) and a reversed light-dark cycle (12 h/12 h) with food and water available ad libitum. All experiments were approved by the Bavarian State animal experimentation committee and carried out in accordance with its regulations.
(§4) Recombinant rat tumor necrosis factor alpha (herein referred to as TNF) was obtained from R&D Systems, Minneapolis, Minn., USA. TNF was diluted in 0.9% NaCl and used in a concentration of 1 μg in 50 μl. Injections were performed in short halothane narcosis with a 30 g needle bilaterally into the gastrocnemius or into the biceps brachii muscle. All rats were used to the behavioral tests before injections and baseline values were recorded over three test days.
Mechanical withdrawal thresholds to muscle pressure were measured with an analgesimeter (Ugo Basile, Comerio, Italy). The rat is allowed to crawl into a sock which helps the rat to relax. The hind limbs were positioned such that an increasing pressure could be applied onto the gastrocnemius muscle (maximum 250 g). The pressure needed to elicit withdrawal was recorded. Means of 3 trials for each hind limb were calculated (interstimulus interval of >30 sec). Only animals with a significant TNF effect were included for further analysis.
Rats were injected with TNF into the M. gastrocnemius at […]. 18 hours later, rats were tested for pressure hyperalgesia pre- and post-application of the drugs. Rats were tested for pressure hyperalgesia 30 to 60 minutes after drug administration.
(§5) […] Injection volume of i.p. injections was 0.5 ml.
(§6) Data are shown in graphs displaying means and SEMs. Pre- and post-treatment data were compared using ANOVA (Analysis Of Variance) and a Tukey post hoc test. Means of treatment groups were compared using a one-way ANOVA and Dunnett's post hoc Test. Maximal possible effects (MPE) were calculated for all types of treatment.

Sprague Dawley rats [3] = test: TNF-induced reduction of forelimb grip strength, biceps brachii muscle; type: in vivo, rat; conditions: for reversal of the TNF induced reduction of grip strength: 6 hours after TNF 1 μg into biceps brachii, 30 to 60 minutes after drug; for MPE versus vehicle, grip strength: FIG. 4; for dose at which the effect of TNF on grip strength is reversed / grip strength improved: i.p., grip strength test
Procedure: as §1, §2, §3, §4
Grip strength of the forelimbs was tested with a digital grip force meter (DFIS series, Chatillon, Greensboro, N.C., USA). The rat was positioned to grab the grid with the forelimbs and was gently pulled so that the grip strength could be recorded. Means of three trials were calculated. The effect of the TNF treatment was calculated for each animal separately and only animals with a significant TNF effect were included for further analysis.
Rats were injected with TNF into the M. biceps brachii at 8 am. 6 hours later, grip strength of the forelimbs was tested with a digital grip force meter. Drugs were applied, and grip strength was again tested after 30 to 60 minutes.
as §5, §6

Wistar rats [4] = test: Tactile allodynia (von Frey filaments) in iodoacetate rat model of osteoarthritic pain; type: in vivo
[5] = 30 mg/kg p.o., day 7 after iodoacetate
[6] = 3 mg/kg s.c., day 7 after iodoacetate

`O=C(O)Cc1ccccc1Nc1c(Cl)cccc1Cl` [diclofenac] was tested, and the “paw pressure withdrawal threshold compared to iodoacetate/vehicle treated animals” value (Wistar rats [1]; 30 mg/kg s.c.) was “increase in paw pressure withdrawal threshold” and the mechanical hyperalgesia (Wistar rats [1]; 30 mg/kg s.c., day 7 after iodoacetate) was “reduced mechanical hyperalgesia”.

In the case of `NCC1(CC(=O)O)CCCCC1` [gabapentin], the “reversal of muscular mechanical hyperalgesia (withdrawal thresholds to pressure)” value (from here on “reversal … (withdrawal thresholds to pressure)”) (Sprague Dawley rats [2]; 100 mg/kg i.p.) was “significant reversal”, the “Maximal Possible Effect (MPE) versus vehicle, muscle pressure” value (Sprague Dawley rats [2]; 100 mg/kg i.p.) was “significantly different from vehicle” and the “full reversal of the muscle hyperalgesia” value (Sprague Dawley rats [2]) was “Neither pregabalin nor gabapentin lead to a full reversal”. For the same compound, the “reversal of the TNF induced reduction of grip strength” value (Sprague Dawley rats [3]; 100 mg/kg i.p.) was “significant reversal”, the “MPE versus vehicle, grip strength” value (Sprague Dawley rats [3]; 100 mg/kg i.p.) was “significantly different from vehicle” and the “dose at which the effect of TNF on grip strength is reversed / grip strength improved” value (Sprague Dawley rats [3]) was 100 mg/kg.

With `COC[C@@H](NC(C)=O)C(=O)NCc1ccccc1` [lacosamide, (R)-2-acetamido-N-benzyl-3-methoxy-propionamide] the “Maximal Possible Effect (MPE) versus vehicle, muscle pressure” value (Sprague Dawley rats [2]; 10 mg/kg i.p.) was “significantly different from vehicle”, the “reversal … (withdrawal thresholds to pressure)” value (Sprague Dawley rats [2]; 30 mg/kg i.p.) was “complete reversal” and the “Maximal Possible Effect (MPE) versus vehicle, muscle pressure” value (Sprague Dawley rats [2]; 30 mg/kg i.p.) was “significantly different from vehicle”. For the same compound, the “muscle hyperalgesia induced by TNF injection in the paw pressure test, dose dependence” value (Sprague Dawley rats [2]; 3, 10, 30 mg/kg i.p.) was “dose dependently improves”, the “reversal of the TNF induced reduction of grip strength” value (Sprague Dawley rats [3]; 10 mg/kg i.p.) was “significant reversal” and the “MPE versus vehicle, grip strength” value (Sprague Dawley rats [3]; 10 mg/kg i.p.) was “significantly different from vehicle”. For the same compound, the “reversal of the TNF induced reduction of grip strength” value (Sprague Dawley rats [3]; 30 mg/kg i.p.) was “significant reversal”, the “MPE versus vehicle, grip strength” value (Sprague Dawley rats [3]; 30 mg/kg i.p.) was “significantly different from vehicle” and the “dose at which the effect of TNF on grip strength is reversed / grip strength improved” value (Sprague Dawley rats [3]) was 10 mg/kg. The “improvement of tactile allodynia” value (Wistar rats [4]; 30 mg/kg p.o., day 3 after iodoacetate, 60 minutes after drug) was “improved”, the “improvement of tactile allodynia” value (Wistar rats [4]; [5]) was “improved” and the “improvement of tactile allodynia” value (Wistar rats [4]; lower doses (3 and 10 mg/kg p.o.)) was “showed a trend for such improvement”. For the same compound, the “paw pressure withdrawal threshold compared to iodoacetate/vehicle treated animals” value (Wistar rats [1]; 3 mg/kg p.o.) was “increase in paw pressure withdrawal threshold”, the mechanical hyperalgesia (Wistar rats [1]; 3 mg/kg p.o., day 7 after iodoacetate) was “reduced mechanical hyperalgesia” and the mechanical hyperalgesia (Wistar rats [1]; 10 mg/kg p.o., day 7 after iodoacetate) was “reduced mechanical hyperalgesia”. The mechanical hyperalgesia (Wistar rats [1]; 10 mg/kg p.o., day 14 after iodoacetate) was “did not show a statistically significant effect” and the mechanical hyperalgesia (Wistar rats [1]; [5]) was “reduced mechanical hyperalgesia”.

`Cc1c(N(C)CS(=O)(=O)O)c(=O)n(-c2ccccc2)n1C` [metamizol] was tested, and the “reversal … (withdrawal thresholds to pressure)” value (Sprague Dawley rats [2]; 2 mg/kg i.p.) was “complete reversal”, the “Maximal Possible Effect (MPE) versus vehicle, muscle pressure” value (Sprague Dawley rats [2]; 2 mg/kg i.p.) was “significantly different from vehicle” and the “reversal of the TNF induced reduction of grip strength” value (Sprague Dawley rats [3]; 2 mg/kg i.p.) was “significant reversal”. The “MPE versus vehicle, grip strength” value (Sprague Dawley rats [3]; 2 mg/kg i.p.) was “significantly different from vehicle”.

`CN1CC[C@]23c4c5ccc(O)c4O[C@H]2[C@@H](O)C=C[C@H]3[C@H]1C5` [morphine] was tested, and the “improvement of tactile allodynia” value (Wistar rats [4]; 3 mg/kg s.c., day 3 after iodoacetate) was “improved”, the “improvement of tactile allodynia” value (Wistar rats [4]; [6]) was “improved” and the “paw pressure withdrawal threshold compared to iodoacetate/vehicle treated animals” value (Wistar rats [1]; 3 mg/kg s.c.) was “increase in paw pressure withdrawal threshold”. The mechanical hyperalgesia (Wistar rats [1]; [6]) was “reduced mechanical hyperalgesia”.

`CC(C)C[C@H](CN)CC(=O)O` [pregabalin] was tested, and the “reversal … (withdrawal thresholds to pressure)” value (Sprague Dawley rats [2]; 30 mg/kg i.p.) was “significant reversal”, the “Maximal Possible Effect (MPE) versus vehicle, muscle pressure” value (Sprague Dawley rats [2]; 30 mg/kg i.p.) was “significantly different from vehicle” and the “reversal … (withdrawal thresholds to pressure)” value (Sprague Dawley rats [2]; 100 mg/kg i.p.) was “significant reversal”. For the same compound, the “Maximal Possible Effect (MPE) versus vehicle, muscle pressure” value (Sprague Dawley rats [2]; 100 mg/kg i.p.) was “significantly different from vehicle”, the “full reversal of the muscle hyperalgesia” value (Sprague Dawley rats [2]) was “Neither pregabalin nor gabapentin lead to a full reversal” and the “reversal of the TNF induced reduction of grip strength” value (Sprague Dawley rats [3]; 100 mg/kg i.p.) was “significant reversal”. For the same compound, the “MPE versus vehicle, grip strength” value (Sprague Dawley rats [3]; 100 mg/kg i.p.) was “significantly different from vehicle” and the “dose at which the effect of TNF on grip strength is reversed / grip strength improved” value (Sprague Dawley rats [3]) was 100 mg/kg.
